Calls of active or inactive are those of the source.
How the values were obtained:
[1] = NIH3T3 cell viability loss – ATP luminescence, mouse fibroblasts, counter-screen, dose response (AID 2010); assay type: functional, cell-based;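 also: cells exposed to compound for about 90 hours before reading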
[2] = non-specific 3'UTR reporter inhibition in Clone20-Shn3RL – cell-based, Renilla luciferase, cherry-picked, counter-screen for Shn3 inhibitor project, dose response (AID 624133); assay type: functional
[3] = molecular target: T1, Streptokinase A (Streptococcus pyogenes serotype M1, UniProt P10520); test: viability-normalized secreted streptokinase activity reduction – plasminogen activation absorbance, OD405, dose response (AID 1914); assay type: functional, Streptococcus pyogenes M1 GAS;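 also: secreted streptokinase activity via plasminogen activation per viability signal from cell pellet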
T1 sequence (P10520 whole entry): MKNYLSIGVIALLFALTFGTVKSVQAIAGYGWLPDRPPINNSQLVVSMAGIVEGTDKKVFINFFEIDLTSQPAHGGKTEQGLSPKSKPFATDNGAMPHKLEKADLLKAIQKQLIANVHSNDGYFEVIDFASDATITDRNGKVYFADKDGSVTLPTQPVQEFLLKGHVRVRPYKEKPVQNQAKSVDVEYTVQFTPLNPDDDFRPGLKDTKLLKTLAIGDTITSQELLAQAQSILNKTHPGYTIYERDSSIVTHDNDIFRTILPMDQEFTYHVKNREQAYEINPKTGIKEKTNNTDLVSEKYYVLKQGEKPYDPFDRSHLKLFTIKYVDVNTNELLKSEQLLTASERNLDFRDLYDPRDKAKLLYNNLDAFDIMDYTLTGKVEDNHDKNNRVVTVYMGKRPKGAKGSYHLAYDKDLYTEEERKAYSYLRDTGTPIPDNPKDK

[4] = Trypanosoma cruzi growth suppression in host cells – NIH3T3 host cells, beta-gal luminescence, confirmation (AID 2044); assay type: functional, cell-based;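 also: intracellular parasites grown in NIH/3T3 mouse fibroblasts as host cells; luminescent beta-galactosidase reporter signal from transgenic T. cruzi replicating inside host cells; inhibitors lower the luminescence signal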
[5] = test system: INS1; test: INS-1E survival protection against cytokine death – cell-based, luminescence, retest, dose response (AID 449756); assay type: functional; conditions: Rattus norvegicus;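 also: cell death triggered by IL-1 beta plus TNF-alpha plus IFN-gamma mixture; protective hits raise ATP signal compared with cytokine alone wells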
[6] = viability loss in HepG2 hepatoma cells – cell-based, ATP luminescence, cherry-pick, activator set 2, cytotoxicity control, dose response (AID 1053143); assay type: functional
[7] = molecular target: T2, Serine/threonine-protein phosphatase (Homo sapiens, UniProt Q9BPW0); test: Counterscreen for inhibitors of PP1: fluorescence-based biochemical high throughput dose response assay to identify inhibitors of Protein Phosphatase 5 (PP5). [Related pubchem assays: 2034 (Summary (PP5 inhibitors)), 1987 (PP5 inhibitors in singlate), 2235 (PP1 inhibitors in singlate)]
T2 sequence (Q9BPW0 whole entry): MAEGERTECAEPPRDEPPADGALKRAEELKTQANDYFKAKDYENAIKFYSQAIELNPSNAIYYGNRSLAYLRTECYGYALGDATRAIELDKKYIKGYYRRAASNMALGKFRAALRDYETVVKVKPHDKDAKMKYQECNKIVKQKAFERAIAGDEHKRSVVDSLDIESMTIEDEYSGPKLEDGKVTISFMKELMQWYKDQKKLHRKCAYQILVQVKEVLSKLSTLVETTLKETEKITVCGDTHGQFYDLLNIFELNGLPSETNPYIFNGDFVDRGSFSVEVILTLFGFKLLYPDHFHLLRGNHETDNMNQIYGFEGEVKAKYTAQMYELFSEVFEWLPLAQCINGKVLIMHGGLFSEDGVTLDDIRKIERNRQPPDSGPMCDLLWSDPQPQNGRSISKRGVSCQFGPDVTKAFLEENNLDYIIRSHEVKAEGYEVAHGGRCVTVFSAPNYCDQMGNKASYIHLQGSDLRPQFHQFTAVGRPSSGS

[8] = cells; assay type: functional, cell-based
[9] = molecular target: T3, Serine/threonine-protein phosphatase PP1-alpha catalytic subunit (Homo sapiens, UniProt P62136); test: inhibition of protein phosphatase 1 activity – biochemical, fluorescence, dose response (AID 2403);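 also: phosphatase turnover of OMFP into fluorescent 3-O-methylfluorescein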
[10] = cells; assay type: functional, cell-based; remark: listed apart in the source
[11] = IC50 of Artemis nuclease activity blockers – biochemical, fluorescence intensity, dose response (AID 720701); assay type: functional;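 also: Artemis endonuclease enzyme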
[12] = HPDE-C7 pancreatic duct cell viability loss – fluorescence, HTS (AID 430); assay type: functional, cell-based; conditions: Homo sapiens
[13] = molecular target: Nonstructural protein 1 (Influenza A virus, UniProt Q194T2); assay type: functional, Influenza A virus (A/California/07/2009(H1N1))
[14] = viability loss of HPDE-C7K cells – cell-based, fluorescence, HTS, primary screen (AID 431); assay type: functional; conditions: Homo sapiens
[15] = reduction of Shn3 3'UTR-driven luciferase in osteoblasts – cell-based, Clone20 osteoblasts, firefly luciferase, cherry-picked, dose response (AID 624132); assay type: functional;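 also: firefly luciferase luminescence from reporter carrying the Shn3 3'UTR in osteoblasts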
[16] = test system: Streptococcus sp. 'group A'; test: Streptococcus pyogenes SK(-)GAS viability under kanamycin – luminescence, BacTiterGlo, confirmation, counter-screen for streptokinase expression inhibitor project, dose response (AID 1900); assay type: functional, organism-based
[17] = loss of viability in HepG2 cells – cell-based, CellTiter-Glo, cherry-picked, cytotoxicity control for Shn3 inhibitor project, dose response (AID 624134); assay type: functional
[18] = test system: Streptococcus; test: GAS UMAA2166 growth inhibition – luminescence, BacTiterGlo, counter-screen for streptokinase expression inhibitor project, dose response (AID 1915); assay type: functional, organism-based;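 also: potency for reduction of bacterial viability or growth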
[19] = Luminescence Cell-Based Dose-Confimation HTS to Identify Inhibitors of 5'UTR Stem-Loop Driven Alpha-Synuclein mRNA Translation in H4 Neuroglioblastoma Cells. [Related pubchem assays: 1827 (Project Summary), 1813 (Primary HTS)]; assay type: functional
[20] = molecular target: Beta-galactosidase (Escherichia coli, UniProt Q8VNN2); test: PubChem AID 485352; assay type: functional
[21] = test system: HeLa; test: Cytotoxicity counterscreen assay for transcriptional activators of heat shock protein 70 (Hsp70). [Related pubchem assays: 1203, 1252 ]; assay type: functional; conditions: Homo sapiens;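 also: cells exposed to compound for 16 hours before readout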
[22] = HEK-293T viability loss after treatment – luminescence, T-cell screen hits, cytotoxicity control for TCR NF-kB inhibitor project, dose response (AID 489026); assay type: functional, cell-based;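 also: cells exposed to compound about 14 hours before the viability readout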
[23] = molecular target: T4, Type-1 angiotensin II receptor (Homo sapiens, UniProt P30556); test: antagonism of angiotensin II type 1 receptor – cell-based, uHTS hits, selectivity assay for APJ receptor antagonist project, dose response (AID 463214); assay type: functional;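 also: antagonist potency against angiotensin II stimulated AT1 response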
T4 sequence (P30556 whole entry): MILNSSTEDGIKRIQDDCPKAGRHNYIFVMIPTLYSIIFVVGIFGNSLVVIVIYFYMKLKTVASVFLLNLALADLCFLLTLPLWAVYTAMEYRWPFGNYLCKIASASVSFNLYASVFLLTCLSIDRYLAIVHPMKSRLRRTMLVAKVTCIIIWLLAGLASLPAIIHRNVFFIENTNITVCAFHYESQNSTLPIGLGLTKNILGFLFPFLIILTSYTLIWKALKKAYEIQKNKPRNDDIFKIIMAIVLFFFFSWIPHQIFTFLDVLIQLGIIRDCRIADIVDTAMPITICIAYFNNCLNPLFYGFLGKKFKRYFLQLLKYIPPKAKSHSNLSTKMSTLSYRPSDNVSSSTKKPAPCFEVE

[24] = Luminescence-based dose response cell-based high throughput screening assay for cytotoxic compounds using the IEC-6 intestinal epithelial cell line. [Related pubchem assays: 1858 (Summary AID.), 1825 (Counterscreen.), 1907 (Confirmation screen.)]; assay type: functional
[25] = molecular target: G-protein coupled receptor 55 (Homo sapiens, UniProt Q9Y2T6); test: inhibition of LPI-stimulated GPR55 beta-arrestin translocation – imaging, U2OS, beta-arrestin-GFP, LPI agonist, primary screen (AID 2013); assay type: functional;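 also: antagonist potency measured as reduced agonist-driven arrestin aggregation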
[26] = molecular target: Peroxisome proliferator-activated receptor gamma/Nuclear receptor coactivator 1 (Homo sapiens, UniProt P37231); assay type: functional;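 also: agonist potency as compounds enhance coactivator SRC-1 recruitment to PPARgamma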
[27] = molecular target: Peroxisome proliferator-activated receptor gamma/Nuclear receptor coactivator 2 (Homo sapiens, UniProt P37231); assay type: functional;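 also: agonist potency for raising coactivator recruitment to the receptor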
[28] = molecular target: Peroxisome proliferator-activated receptor gamma/Nuclear receptor coactivator 3 (Homo sapiens, UniProt P37231); assay type: functional;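 also: agonist potency for raising coactivator recruitment to the receptor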
[29] = molecular target: Protein-tyrosine kinase 2-beta (Homo sapiens, UniProt Q14289);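 also: potency of inhibitors of PYK2 kinase phosphorylation of poly-GT substrate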
[30] = viability of PTEN-deleted HCT116 cells – cell-based, HCT116 PTEN knockout, dose response (AID 1047); assay type: functional;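 also: HCT116 colon tumor cells with PTEN knocked out; cells exposed to compound for 60 hours before readout; potency for loss of cell viability measured by luminescence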
[31] = molecular target: ADP-ribosylation factor GTPase-activating protein 1 (Rattus norvegicus, UniProt Q62848); test: Fluorescence polarization-based biochemical high throughput dose response screening assay to identify inhibitors of ADP-ribosylation factor GTPase activating protein 1 (ARFGAP1).; assay type: functional
[32] = molecular target: Arf-GAP with SH3 domain, ANK repeat and PH domain-containing protein 1 (Homo sapiens, UniProt Q9ULH1); assay type: functional;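 also: biochemical fluorescence polarization dose–response screen measuring inhibition of ASAP1; ASAP1 GAP domain stimulating GTP hydrolysis by truncated human ARF1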
[33] = microbe, parasite or virus in culture; assay type: functional; conditions: Mycobacterium tuberculosis
[34] = molecular target: T3, Serine/threonine-protein phosphatase PP1-alpha catalytic subunit; test: inhibition of protein phosphatase 1 activity – biochemical, fluorescence, dose response (AID 2394)
[35] = molecular target: T2, Serine/threonine-protein phosphatase; test: inhibition of protein phosphatase 5 activity – biochemical, fluorescence, dose response (AID 2395)
[36] = inhibition of ARNT PAS-B/TACC3 complex formation – biochemical, AlphaScreen, cherry-picked samples, confirmation (AID 651703); assay type: functional, Homo sapiens;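 also: His-tagged ARNT PAS-B domain paired with GST-TACC3 E629A dimer coactivator fragment; potency of inhibitors that break up the complex and lower AlphaScreen signal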
[37] = molecular target: T5, Heat shock factor protein 1 (Mus musculus, UniProt P38532); test: enhancement of HSF1-driven luciferase signal – cell-based, NIH3T3, luminescence, dose retest, confirmation (AID 435004); assay type: functional;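 also: stress induced by proteasome inhibitor MG132 added 30 min after compound; luciferase reporter driven by HSF1 response element in NIH3T3 cells; actives raise luminescence as potentiators of the MG132 stress response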
T5 sequence (P38532 whole entry): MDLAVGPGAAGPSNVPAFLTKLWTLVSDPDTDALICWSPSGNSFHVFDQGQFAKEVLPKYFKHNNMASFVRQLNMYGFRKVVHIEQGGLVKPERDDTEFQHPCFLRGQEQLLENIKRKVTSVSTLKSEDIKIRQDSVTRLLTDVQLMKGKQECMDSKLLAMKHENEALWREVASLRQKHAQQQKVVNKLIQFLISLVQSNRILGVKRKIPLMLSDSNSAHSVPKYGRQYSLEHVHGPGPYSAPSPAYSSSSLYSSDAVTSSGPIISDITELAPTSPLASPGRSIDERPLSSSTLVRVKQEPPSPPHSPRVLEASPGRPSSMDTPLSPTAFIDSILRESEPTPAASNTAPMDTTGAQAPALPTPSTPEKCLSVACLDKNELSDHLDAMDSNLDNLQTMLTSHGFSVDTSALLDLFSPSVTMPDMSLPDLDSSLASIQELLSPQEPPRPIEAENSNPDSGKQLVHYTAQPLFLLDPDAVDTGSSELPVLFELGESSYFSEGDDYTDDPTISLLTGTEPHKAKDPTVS

[38] = molecular target: T6, Heat shock 70 kDa protein 1A (Homo sapiens, UniProt P0DMV8); test: small-molecule inhibition of Hsp70 – biochemical, TR-FRET (AID 786)
[39] = molecular target: T6, Heat shock 70 kDa protein 1A; test: small molecules displacing fluorescent ligand from Hsp70 – biochemical, fluorescence polarization, primary screen (AID 583)
[40] = molecular target: Leucine aminopeptidase (Plasmodium falciparum 3D7, UniProt Q8IL11); test: P. falciparum M17LAP inhibitors, primary screen, biochemical, fluorogenic H-Leu-NHMec substrate, 1536-well (AID 1619); assay type: functional
[41] = molecular target: NADPH oxidase 1 (Homo sapiens, UniProt Q9Y5S8); assay type: functional, cell-based;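 also: Cell-based assay with luminescence read-out, IC50 derived from inhibitor dose-response curves; intracellular ROS from endogenous NOX1 in intact HT29 colon cancer cells; potency of inhibitors that lower the ROS luminescence signal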
NADPH oxidase 1, sequence (Q9Y5S8 whole entry): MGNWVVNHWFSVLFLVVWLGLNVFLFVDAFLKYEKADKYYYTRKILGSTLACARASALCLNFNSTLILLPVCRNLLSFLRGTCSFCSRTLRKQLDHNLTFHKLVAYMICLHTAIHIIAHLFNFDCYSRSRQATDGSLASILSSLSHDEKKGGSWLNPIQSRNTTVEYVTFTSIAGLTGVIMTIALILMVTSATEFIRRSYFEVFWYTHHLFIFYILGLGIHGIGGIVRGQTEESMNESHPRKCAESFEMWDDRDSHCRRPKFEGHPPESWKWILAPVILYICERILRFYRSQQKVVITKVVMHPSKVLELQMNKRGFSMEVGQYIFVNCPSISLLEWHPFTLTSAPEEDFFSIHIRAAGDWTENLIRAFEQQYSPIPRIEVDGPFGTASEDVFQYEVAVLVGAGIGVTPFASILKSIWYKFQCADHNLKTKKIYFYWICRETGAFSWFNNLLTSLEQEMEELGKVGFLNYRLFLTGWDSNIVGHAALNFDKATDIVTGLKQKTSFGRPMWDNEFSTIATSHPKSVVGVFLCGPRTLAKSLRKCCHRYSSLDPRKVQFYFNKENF

T3 sequence (P62136 whole entry): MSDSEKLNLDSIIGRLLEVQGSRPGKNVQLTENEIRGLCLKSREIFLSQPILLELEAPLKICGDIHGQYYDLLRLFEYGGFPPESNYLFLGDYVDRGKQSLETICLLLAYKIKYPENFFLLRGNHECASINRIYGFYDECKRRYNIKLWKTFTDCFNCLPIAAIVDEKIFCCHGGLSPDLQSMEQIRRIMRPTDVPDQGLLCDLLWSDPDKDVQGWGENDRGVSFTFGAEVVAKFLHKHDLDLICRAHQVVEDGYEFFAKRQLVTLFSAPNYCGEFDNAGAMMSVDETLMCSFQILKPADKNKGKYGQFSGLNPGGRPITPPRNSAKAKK
T6 sequence (P0DMV8 whole entry): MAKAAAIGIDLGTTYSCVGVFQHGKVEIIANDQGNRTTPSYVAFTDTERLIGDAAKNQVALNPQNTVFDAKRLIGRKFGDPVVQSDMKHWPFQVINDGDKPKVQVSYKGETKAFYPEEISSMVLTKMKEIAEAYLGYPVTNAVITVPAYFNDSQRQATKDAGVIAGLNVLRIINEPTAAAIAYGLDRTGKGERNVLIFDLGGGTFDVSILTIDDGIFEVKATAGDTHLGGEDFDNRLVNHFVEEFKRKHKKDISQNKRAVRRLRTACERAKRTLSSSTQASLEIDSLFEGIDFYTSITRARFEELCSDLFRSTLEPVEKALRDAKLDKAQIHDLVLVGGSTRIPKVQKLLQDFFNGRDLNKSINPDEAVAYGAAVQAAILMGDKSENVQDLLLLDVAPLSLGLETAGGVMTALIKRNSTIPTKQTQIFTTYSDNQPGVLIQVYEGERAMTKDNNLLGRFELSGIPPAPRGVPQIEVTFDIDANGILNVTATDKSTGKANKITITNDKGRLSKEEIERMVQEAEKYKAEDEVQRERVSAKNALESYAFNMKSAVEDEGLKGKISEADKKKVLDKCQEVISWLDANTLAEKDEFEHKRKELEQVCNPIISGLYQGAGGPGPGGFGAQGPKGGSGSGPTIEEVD
Beta-galactosidase, sequence (Q8VNN2 whole entry): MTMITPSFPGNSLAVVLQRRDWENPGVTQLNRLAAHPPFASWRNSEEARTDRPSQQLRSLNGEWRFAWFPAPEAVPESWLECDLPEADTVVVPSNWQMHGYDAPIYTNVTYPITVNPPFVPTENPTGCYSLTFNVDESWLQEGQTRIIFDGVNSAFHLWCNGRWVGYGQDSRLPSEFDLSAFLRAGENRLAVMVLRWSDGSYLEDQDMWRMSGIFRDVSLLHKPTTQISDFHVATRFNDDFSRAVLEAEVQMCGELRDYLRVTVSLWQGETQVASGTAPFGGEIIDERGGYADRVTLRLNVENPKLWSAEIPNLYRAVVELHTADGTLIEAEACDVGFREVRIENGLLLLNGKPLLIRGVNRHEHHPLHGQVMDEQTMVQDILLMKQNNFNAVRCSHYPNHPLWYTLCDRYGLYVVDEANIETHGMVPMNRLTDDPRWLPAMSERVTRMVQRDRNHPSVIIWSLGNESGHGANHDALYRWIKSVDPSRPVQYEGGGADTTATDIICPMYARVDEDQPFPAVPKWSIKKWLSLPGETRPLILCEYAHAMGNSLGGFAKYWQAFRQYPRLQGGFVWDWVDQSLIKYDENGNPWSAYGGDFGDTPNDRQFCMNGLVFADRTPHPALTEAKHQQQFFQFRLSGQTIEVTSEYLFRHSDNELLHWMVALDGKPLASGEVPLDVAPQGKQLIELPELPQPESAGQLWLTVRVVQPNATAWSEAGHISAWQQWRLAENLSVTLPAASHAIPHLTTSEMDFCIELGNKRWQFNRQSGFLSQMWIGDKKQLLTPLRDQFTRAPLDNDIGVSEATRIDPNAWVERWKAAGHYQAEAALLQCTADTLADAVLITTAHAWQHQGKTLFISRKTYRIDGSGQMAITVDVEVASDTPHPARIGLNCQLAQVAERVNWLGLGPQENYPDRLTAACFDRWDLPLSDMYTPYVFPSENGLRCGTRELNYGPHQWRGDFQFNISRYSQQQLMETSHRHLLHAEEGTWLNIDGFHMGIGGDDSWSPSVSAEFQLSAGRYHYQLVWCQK
Nonstructural protein 1, sequence (Q194T2 whole entry): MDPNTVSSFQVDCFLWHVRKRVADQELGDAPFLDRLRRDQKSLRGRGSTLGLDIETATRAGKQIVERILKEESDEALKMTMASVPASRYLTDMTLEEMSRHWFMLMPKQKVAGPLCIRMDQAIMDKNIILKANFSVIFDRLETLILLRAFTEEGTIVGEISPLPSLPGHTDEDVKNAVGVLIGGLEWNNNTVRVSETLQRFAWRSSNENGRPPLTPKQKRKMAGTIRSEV
G-protein coupled receptor 55, sequence (Q9Y2T6 whole entry): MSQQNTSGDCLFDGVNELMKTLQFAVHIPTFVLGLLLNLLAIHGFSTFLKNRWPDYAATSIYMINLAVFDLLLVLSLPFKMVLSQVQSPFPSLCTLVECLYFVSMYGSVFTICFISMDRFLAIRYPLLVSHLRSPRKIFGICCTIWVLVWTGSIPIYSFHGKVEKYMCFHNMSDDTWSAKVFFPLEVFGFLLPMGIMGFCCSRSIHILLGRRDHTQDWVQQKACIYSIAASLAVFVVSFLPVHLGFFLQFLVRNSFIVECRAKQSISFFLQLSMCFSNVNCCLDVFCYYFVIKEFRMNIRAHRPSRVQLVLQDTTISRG
Protein-tyrosine kinase 2-beta, sequence (Q14289 whole entry): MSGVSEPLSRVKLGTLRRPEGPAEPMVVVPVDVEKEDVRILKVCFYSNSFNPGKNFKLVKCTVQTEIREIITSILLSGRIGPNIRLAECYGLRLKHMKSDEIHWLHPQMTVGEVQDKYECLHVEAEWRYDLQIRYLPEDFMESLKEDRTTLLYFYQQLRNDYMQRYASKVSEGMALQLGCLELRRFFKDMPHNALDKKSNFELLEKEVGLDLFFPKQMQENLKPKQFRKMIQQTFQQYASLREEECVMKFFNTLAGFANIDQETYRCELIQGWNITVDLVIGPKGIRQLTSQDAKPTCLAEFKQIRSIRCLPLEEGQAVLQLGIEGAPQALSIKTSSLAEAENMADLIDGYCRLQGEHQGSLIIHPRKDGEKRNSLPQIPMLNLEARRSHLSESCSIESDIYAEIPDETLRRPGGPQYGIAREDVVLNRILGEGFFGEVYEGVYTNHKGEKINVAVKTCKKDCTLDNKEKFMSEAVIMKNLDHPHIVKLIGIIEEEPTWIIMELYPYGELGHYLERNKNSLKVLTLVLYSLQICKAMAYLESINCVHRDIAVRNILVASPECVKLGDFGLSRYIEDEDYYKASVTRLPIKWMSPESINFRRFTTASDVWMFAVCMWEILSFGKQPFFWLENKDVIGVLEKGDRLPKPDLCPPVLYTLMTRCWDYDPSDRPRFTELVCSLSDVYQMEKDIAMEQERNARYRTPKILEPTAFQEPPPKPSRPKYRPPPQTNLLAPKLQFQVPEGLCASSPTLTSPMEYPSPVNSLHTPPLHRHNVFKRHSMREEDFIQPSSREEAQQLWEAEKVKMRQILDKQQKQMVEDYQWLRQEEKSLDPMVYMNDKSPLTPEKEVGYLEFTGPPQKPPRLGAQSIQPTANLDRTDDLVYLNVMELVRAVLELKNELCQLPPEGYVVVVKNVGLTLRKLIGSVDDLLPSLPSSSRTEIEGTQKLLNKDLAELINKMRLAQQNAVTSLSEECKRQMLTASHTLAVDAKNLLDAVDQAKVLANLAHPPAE
ADP-ribosylation factor GTPase-activating protein 1, sequence (Q62848 whole entry, the tested form may be a part): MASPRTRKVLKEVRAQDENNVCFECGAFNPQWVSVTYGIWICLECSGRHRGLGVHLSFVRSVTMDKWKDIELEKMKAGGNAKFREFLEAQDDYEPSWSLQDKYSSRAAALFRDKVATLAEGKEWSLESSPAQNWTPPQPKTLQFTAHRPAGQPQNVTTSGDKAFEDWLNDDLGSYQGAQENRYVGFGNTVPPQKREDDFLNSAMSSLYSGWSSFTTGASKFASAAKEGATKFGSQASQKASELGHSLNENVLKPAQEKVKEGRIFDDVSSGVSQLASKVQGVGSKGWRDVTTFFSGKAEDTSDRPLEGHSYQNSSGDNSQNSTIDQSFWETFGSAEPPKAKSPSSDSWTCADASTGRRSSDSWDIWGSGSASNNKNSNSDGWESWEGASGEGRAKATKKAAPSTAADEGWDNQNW

In the case of `Oc1c(C(Nc2ccccn2)c2ccccn2)ccc2cccnc12` (stereo unspecified), the EC50 [1] is reported as 5.87 µM (active), the AC50 [2] is reported as 2.88 µM (active) and the EC50 [3] is reported as > 150 µM (not active). For the same compound, the EC50 [4] was 1.22 µM (active), the AC50 [5] was 2.79 µM (active) and the AC50 [6] was 21.9 µM (active). For the same compound, the IC50 [7] was > 67 µM (not active), the EC50 [8] was > 350 µM (not active) and the IC50 [9] was 3.82 µM (active). For the same compound, the EC50 [10] was 9.9 µM (active), the IC50 [11] was 11.4 µM (active) and the EC50 [12] was 17.6 µM (active). The IC50 [13] was 8.2 µM (active), the EC50 [14] was > 20 µM (not active) and the AC50 [15] was 4.36 µM (active). For the same compound, the EC50 [16] was 7.44 µM (active), the AC50 [17] was 6 µM (active) and the EC50 [18] was 14.8 µM (active).

In the case of `Cc1cccc(C)c1-n1nnnc1SCc1nc(N)nc(N(C)C)n1`, the EC50 [19] is reported as 8.3 µM (active).

In the case of `COc1ccc(NC(=O)/C(Cl)=C(/Cl)[S+]([O-])Cc2ccccc2Cl)cn1` (stereo unspecified), the EC50 [20] is reported as > 40 µM (inactive), the CC50 [21] is reported as 1.43 µM (active) and the IC50 [22] is reported as 25.3 µM (inactive). The IC50 [23] was 4.54 µM (active), the IC50 [24] was 1.36 µM (active) and the IC50 [25] was 3.25 µM (active).

For `O=C(CSc1ccc2nnc(-c3ccccn3)n2n1)NCc1ccc2c(c1)OCO2`, the EC50 [26] was > 79.4 µM (not active), the EC50 [27] was > 79.4 µM (not active) and the EC50 [28] was > 79.4 µM (not active).

With `Cc1ccc2cc3cc(C(=O)NCc4ccc5c(c4)OCO5)oc3nc2c1` the IC50 [29] was 46.5 µM (not active), the EC50 [30] was 20.9 µM (active) and the IC50 [31] was 16.7 µM (inactive). The IC50 [32] was 12.5 µM (inactive).

With `CCCCN(CC)c1nc(N)c2c(N)nc(OCC)cc2c1C#N` the CC50 [33] was > 40 µM (active), the IC50 [34] was > 67 µM (not active) and the IC50 [35] was 15.2 µM (not active). The AC50 [36] was 92.8 µM (active) and the EC50 [37] was > 260 µM (inactive).

In the case of `COCCCNC(=O)CC(NS(=O)(=O)c1ccc(C)cc1)c1ccco1` (stereo unspecified), the IC50 [38] is reported as > 100 µM (not active) and the IC50 [39] is reported as > 100 µM (not active).

For `COc1ccc(NC(=O)Nc2ccc(C(=O)N3CCOCC3)cc2)cc1`, the IC50 [40] was 31.6 µM (active).

With `CN(C)c1ccc(-c2nc(-c3ccccc3)c(-c3ccccc3)[nH]2)cc1` the IC50 [41] was 7.95 µM (active).

Source: ChEMBL document CHEMBL1201862, “PubChem BioAssay data set” (2004)
